{
  "source": "patent US10822632B2",
  "about": "“Medium for detecting Staphylococcus aureus, sheet for detecting S. aureus comprising same, and method for detecting S. aureus using same” (DAI NIPPON PRINTING CO., LTD., priority 2016, dated 2020)",
  "assay_in_all_cases": "Experiment 4: growth on culture sheet containing colistin sodium methanesulfonate",
  "assay_type_in_all_cases": "cell-based",
  "key": {"[1]": {"tested_on": "Staphylococcus aureus ATCC25923", "settings": "tested concentration of 0.3 to 4.1 mg/cm^3 (0.1 to 1.6 mg/ml in the sample solution)", "procedure": "(§1) A given type of microbial strains to be tested were inoculated into a liquid medium (SCD broth medium), and culture was conducted at 35° C. for 24 hours to prepare a test microbial suspension. This test microbial suspension was diluted with phosphate buffered physiological saline to adjust the cell density to about 1 to 500 cfu/ml. The resulting test microbial sample (1 ml) was inoculated into the culture layer of the microorganism culture sheet prepared with the use of the medium liquid containing the components shown in Table 1 using a micropipette. The microorganism culture sheet into which the sample had been inoculated was allowed to stand in an incubator and culture was then conducted at 35° C. for 24 or 48 hours. After the completion of culture, the microorganism culture sheet was removed from the incubator. The color of the colony formed in the culture layer of the microorganism culture sheet and the color intensity were visually inspected. Each test microbial strain was subjected to the experiment described above. The names of the microbial strains to be tested used for the experiment and the conditions and the color of the colonies formed by the strains are shown in Table 2.\n(§2) A test microbial sample was prepared in the same manner as in Experiment 1. Also, the microorganism culture sheet was prepared in the same manner as in Experiment 1. […]"}, "[2]": {"tested_on": "Staphylococcus aureus NBRC100910", "settings": "tested concentration of 0.3 to 4.1 mg/cm^3 (0.1 to 1.6 mg/ml in the sample solution)", "procedure": "as §1, §2"}, "[3]": {"tested_on": "Staphylococcus intermedius ATCC29663", "parameters": "key: the term “Inhibited” indicates the condition under which the growth was inhibited; a blank column indicates that a colony was formed under normal growth condition", "settings": "culture 24 hours", "procedure": "as §1\n(§3) A test microbial sample was prepared in the same manner as in Experiment 1. Also, the microorganism culture sheet was prepared in the same manner as in Experiment 1. […] With the use of a micropipette, 1 ml of the test microbial sample was inoculated into a culture layer of the microorganism culture sheet. In the same manner as with Experiment 1, the microorganism culture sheet into which the sample had been inoculated was subjected to incubation, culture was conducted for 24 hours, and the color of the colony formed in the culture layer of the microorganism culture sheet and the color intensity were visually inspected. Each test microbial strain was subjected to the experiment described above. The names of the microbial strains to be tested used for the experiment and the conditions of the colonies formed by the strains are shown in Table 5. […] The colistin sodium methanesulfonate concentration indicated in the upper column is mass concentration (mg/cm^3) relative to the total volume of the dried culture layer before the sample was inoculated thereinto, and the concentration indicated in the lower column is mass concentration (mg/ml) relative to the total volume of the sample solution that was inoculated into the culture layer at the time of use."}, "[4]": {"tested_on": "Staphylococcus aureus NBRC12732", "parameters": "key to Growth condition of the colony: the term “Inhibited” indicates the condition under which the growth was inhibited; a blank column indicates that a colony was formed under normal growth condition", "settings": "for Growth condition of the colony: culture 24 hours", "procedure": "as §1, §3"}, "[5]": {"tested_on": "Staphylococcus carnosus (Derived from roast beef)", "parameters": "key to Growth condition of the colony: the term “Inhibited” indicates the condition under which the growth was inhibited; a blank column indicates that a colony was formed under normal growth condition", "settings": "for Growth condition of the colony: culture 24 hours", "procedure": "as §1, §3"}, "[6]": {"tested_on": "Staphylococcus saprophyticus subsp. saprophyticus NBRC102446", "parameters": "key to Growth condition of the colony: the term “Inhibited” indicates the condition under which the growth was inhibited; a blank column indicates that a colony was formed under normal growth condition", "settings": "for Growth condition of the colony: culture 24 hours", "procedure": "as §1, §3"}, "[7]": {"tested_on": "Staphylococcus sciuri ATCC29062", "parameters": "key to Growth condition of the colony: the term “Inhibited” indicates the condition under which the growth was inhibited; a blank column indicates that a colony was formed under normal growth condition", "settings": "for Growth condition of the colony: culture 24 hours", "procedure": "as §1, §3"}, "[8]": {"tested_on": "Staphylococcus xylosus NBRC109770", "parameters": "key to Growth condition of the colony: the term “Inhibited” indicates the condition under which the growth was inhibited; a blank column indicates that a colony was formed under normal growth condition", "settings": "for Growth condition of the colony: culture 24 hours", "procedure": "as §1, §3"}, "[9]": {"settings": "colistin 3.3 mg/cm^3 dried culture layer (1.3 mg/ml sample solution)"}, "[10]": {"settings": "colistin 3.6 mg/cm^3 dried culture layer (1.4 mg/ml sample solution)"}, "[11]": {"settings": "colistin 3.8 mg/cm^3 dried culture layer (1.5 mg/ml sample solution)"}, "[12]": {"settings": "colistin 4.1 mg/cm^3 dried culture layer (1.6 mg/ml sample solution)"}, "[13]": {"settings": "colistin 3.1 mg/cm^3 dried culture layer (1.2 mg/ml sample solution)"}, "[14]": {"settings": "mass concentration in the sample solution"}, "[15]": {"settings": "mass concentration relative to total volume of dried culture layer"}, "[16]": {"settings": "colistin 1.3 mg/cm^3 dried culture layer (0.5 mg/ml sample solution)"}, "[17]": {"settings": "colistin 1.5 mg/cm^3 dried culture layer (0.6 mg/ml sample solution)"}, "[18]": {"settings": "colistin 1.8 mg/cm^3 dried culture layer (0.7 mg/ml sample solution)"}, "[19]": {"settings": "colistin 2.0 mg/cm^3 dried culture layer (0.8 mg/ml sample solution)"}, "[20]": {"settings": "colistin 2.3 mg/cm^3 dried culture layer (0.9 mg/ml sample solution)"}, "[21]": {"settings": "colistin 2.5 mg/cm^3 dried culture layer (1 mg/ml sample solution)"}, "[22]": {"settings": "colistin 2.8 mg/cm^3 dried culture layer (1.1 mg/ml sample solution)"}},
  "data": [
    {"substance": "colistin sodium methanesulfonate", "values": [
      {"measurement": "Growth inhibition", "setting": "[1]", "value": "did not inhibit the growth"},
      {"measurement": "Growth inhibition", "setting": "[2]", "value": "did not inhibit the growth"},
      {"measurement": "Growth condition of the colony", "setting": "[3]; [9]", "value": "Inhibited"},
      {"measurement": "Growth condition of the colony", "setting": "[3]; [10]", "value": "Inhibited"},
      {"measurement": "Growth condition of the colony", "setting": "[3]; [11]", "value": "Inhibited"},
      {"measurement": "Growth condition of the colony", "setting": "[3]; [12]", "value": "Inhibited"},
      {"measurement": "Growth condition of the colony", "setting": "[4]; [13]", "value": "Inhibited"},
      {"measurement": "Growth condition of the colony", "setting": "[4]; [9]", "value": "Inhibited"},
      {"measurement": "Growth condition of the colony", "setting": "[4]; [10]", "value": "Inhibited"},
      {"measurement": "Growth condition of the colony", "setting": "[4]; [11]", "value": "Inhibited"},
      {"measurement": "Growth condition of the colony", "setting": "[4]; [12]", "value": "Inhibited"},
      {"measurement": "Concentration at which growth was inhibited", "setting": "[4]; [14]", "value": 1.2, "unit": "mg/mL"},
      {"measurement": "Concentration at which growth was inhibited", "setting": "[4]; [15]", "value": 3.1, "unit": "mg/mL"},
      {"measurement": "Growth condition of the colony", "setting": "[5]; [16]", "value": "Inhibited"},
      {"measurement": "Growth condition of the colony", "setting": "[5]; [17]", "value": "Inhibited"},
      {"measurement": "Growth condition of the colony", "setting": "[5]; [18]", "value": "Inhibited"},
      {"measurement": "Growth condition of the colony", "setting": "[5]; [19]", "value": "Inhibited"},
      {"measurement": "Growth condition of the colony", "setting": "[5]; [20]", "value": "Inhibited"},
      {"measurement": "Growth condition of the colony", "setting": "[5]; [21]", "value": "Inhibited"},
      {"measurement": "Growth condition of the colony", "setting": "[5]; [22]", "value": "Inhibited"},
      {"measurement": "Growth condition of the colony", "setting": "[5]; [13]", "value": "Inhibited"},
      {"measurement": "Growth condition of the colony", "setting": "[5]; [9]", "value": "Inhibited"},
      {"measurement": "Growth condition of the colony", "setting": "[5]; [10]", "value": "Inhibited"},
      {"measurement": "Growth condition of the colony", "setting": "[5]; [11]", "value": "Inhibited"},
      {"measurement": "Growth condition of the colony", "setting": "[5]; [12]", "value": "Inhibited"},
      {"measurement": "Concentration at which growth was inhibited", "setting": "[5]; [14]", "value": "≥ 0.5", "unit": "mg/mL"},
      {"measurement": "Concentration at which growth was inhibited", "setting": "[5]; [15]", "value": "≥ 1.3", "unit": "mg/mL"},
      {"measurement": "Growth condition of the colony", "setting": "[6]; colistin 0.5 mg/cm^3 dried culture layer (0.2 mg/ml sample solution)", "value": "Inhibited"},
      {"measurement": "Growth condition of the colony", "setting": "[6]; colistin 0.8 mg/cm^3 dried culture layer (0.3 mg/ml sample solution)", "value": "Inhibited"},
      {"measurement": "Growth condition of the colony", "setting": "[6]; colistin 1.0 mg/cm^3 dried culture layer (0.4 mg/ml sample solution)", "value": "Inhibited"},
      {"measurement": "Growth condition of the colony", "setting": "[6]; [16]", "value": "Inhibited"},
      {"measurement": "Growth condition of the colony", "setting": "[6]; [17]", "value": "Inhibited"},
      {"measurement": "Growth condition of the colony", "setting": "[6]; [18]", "value": "Inhibited"},
      {"measurement": "Growth condition of the colony", "setting": "[6]; [19]", "value": "Inhibited"},
      {"measurement": "Growth condition of the colony", "setting": "[6]; [20]", "value": "Inhibited"},
      {"measurement": "Growth condition of the colony", "setting": "[6]; [21]", "value": "Inhibited"},
      {"measurement": "Growth condition of the colony", "setting": "[6]; [22]", "value": "Inhibited"},
      {"measurement": "Growth condition of the colony", "setting": "[6]; [13]", "value": "Inhibited"},
      {"measurement": "Growth condition of the colony", "setting": "[6]; [9]", "value": "Inhibited"},
      {"measurement": "Growth condition of the colony", "setting": "[6]; [10]", "value": "Inhibited"},
      {"measurement": "Growth condition of the colony", "setting": "[6]; [11]", "value": "Inhibited"},
      {"measurement": "Growth condition of the colony", "setting": "[6]; [12]", "value": "Inhibited"},
      {"measurement": "Concentration at which growth was inhibited", "setting": "[6]; [14]", "value": "≥ 0.2", "unit": "mg/mL"},
      {"measurement": "Concentration at which growth was inhibited", "setting": "[6]; [15]", "value": "≥ 0.5", "unit": "mg/mL"},
      {"measurement": "Growth condition of the colony", "setting": "[7]; [20]", "value": "Inhibited"},
      {"measurement": "Growth condition of the colony", "setting": "[7]; [21]", "value": "Inhibited"},
      {"measurement": "Growth condition of the colony", "setting": "[7]; [22]", "value": "Inhibited"},
      {"measurement": "Growth condition of the colony", "setting": "[7]; [13]", "value": "Inhibited"},
      {"measurement": "Growth condition of the colony", "setting": "[7]; [9]", "value": "Inhibited"},
      {"measurement": "Growth condition of the colony", "setting": "[7]; [10]", "value": "Inhibited"},
      {"measurement": "Growth condition of the colony", "setting": "[7]; [11]", "value": "Inhibited"},
      {"measurement": "Growth condition of the colony", "setting": "[7]; [12]", "value": "Inhibited"},
      {"measurement": "Concentration at which growth was inhibited", "setting": "[7]; [14]", "value": "≥ 0.9", "unit": "mg/mL"},
      {"measurement": "Concentration at which growth was inhibited", "setting": "[7]; [15]", "value": "≥ 2.3", "unit": "mg/mL"},
      {"measurement": "Growth condition of the colony", "setting": "[8]; [20]", "value": "Inhibited"},
      {"measurement": "Growth condition of the colony", "setting": "[8]; [21]", "value": "Inhibited"},
      {"measurement": "Growth condition of the colony", "setting": "[8]; [22]", "value": "Inhibited"},
      {"measurement": "Growth condition of the colony", "setting": "[8]; [13]", "value": "Inhibited"},
      {"measurement": "Growth condition of the colony", "setting": "[8]; [9]", "value": "Inhibited"},
      {"measurement": "Growth condition of the colony", "setting": "[8]; [10]", "value": "Inhibited"},
      {"measurement": "Growth condition of the colony", "setting": "[8]; [11]", "value": "Inhibited"},
      {"measurement": "Growth condition of the colony", "setting": "[8]; [12]", "value": "Inhibited"},
      {"measurement": "Concentration at which growth was inhibited", "setting": "[8]; [14]", "value": "≥ 0.9", "unit": "mg/mL"},
      {"measurement": "Concentration at which growth was inhibited", "setting": "[8]; [15]", "value": "≥ 2.3", "unit": "mg/mL"}
    ]}
  ]
}
